Results as given in US8653127B2, “Bicyclic pyrazolo-heterocycles” (Cara Therapeutics, Inc., priority 2009, dated 2014).
Where two headings read alike, the source gives them in different places.

Legend:
[1] = test system: rat L5/L6 SNL model; assay: Spinal nerve ligation (SNL) model of neuropathic pain, mechanical allodynia; assay type: in vivo; settings: two-way repeated measurement ANOVA, FIG. 1
Protocol: The SNL model (Kim and Chung, 1992, Pain 50(3):355-63) was used to induce chronic neuropathic pain in rats. Rats were anesthetized with isoflurane, the left L5 transverse process was removed, and the L5 and L6 spinal nerves were tightly ligated with 6-0 silk suture. The wound was then closed with internal sutures and external staples. Following at least seven days post SNL, baseline, post-injury and post-treatment values for non-noxious mechanical sensitivity were evaluated using eight Semmes-Weinstein filaments (Stoelting, Wood Dale, Ill., USA) with varying stiffness (0.4, 0.7, 1.2, 2.0, 3.6, 5.5, 8.5, and 15 g) according to the up-down method (Chaplan et al., 1994, J. Neurosci. Meth., 53(1):55-63). Animals were placed on a perforated metallic platform and allowed to acclimate to their surroundings for a minimum of 30 mins before testing.
Rat L5/L6 SNL model (n=6/group; mean±sem). Sensitivity to non-noxious mechanical stimuli was tested before and at various time points following oral administration of compound (36). The mean and standard error of the mean (SEM) were determined for the injured paw in each treatment group. Since this stimulus is normally not considered painful, significant injury-induced increases in responsiveness in this test are interpreted as a measure of mechanical allodynia.

[2] = biological target: human CB1 receptor (hCB1) (Homo sapiens, UniProt P21554); assay: cAMP assay, agonist/inverse agonist activity at human CB1 receptor; assay type: cell-based; settings: hCB1R, read-out: EC50 at hCB1R (Potency at Human CB1 determined by cAMP Assay)
Protocol: The ability of each of the compounds to act as agonists or inverse agonists at human CB2 and CB 1 receptors (hCB2, hCB 1, respectively) and at the rat CB2 receptor (rCB2) was determined by measuring changes in intracellular cyclic AMP (cAMP) levels as described in U.S. Pat. No. 7,517,874.
TR-FRET was measured using a 330-380 nm excitation filter, 615 nm and 665 nm emission filters, dichroic mirror 380 nm and Z=10 mm. cAMP concentrations in each well were back-calculated from a cAMP standard curve run concurrently during each assay. Each plate contained 16 wells of forskolin stimulated cells and 16 wells of forskolin plus 1 μM CP55,940-treated cells. Concentrations of cAMP were expressed as a percent of the difference of these two groups of wells. Concentration-response data including EC50 (the concentration of compound producing 50% of the maximal response) and intrinsic activity (the percent maximal activation compared to full activation by CP55,940) were determined using a four-parameter non-linear regression algorithm (CambridgeSoft Bioassay).

[3] = biological target: human CB2 receptor (hCB2) (Homo sapiens, UniProt P34972); assay: cAMP assay, agonist/inverse agonist activity at human CB2 receptor; assay type: cell-based
Protocol: TR-FRET was measured using a 330-380 nm excitation filter, 615 nm and 665 nm emission filters, dichroic mirror 380 nm and Z=10 mm. cAMP concentrations in each well were back-calculated from a cAMP standard curve run concurrently during each assay. Each plate contained 16 wells of forskolin stimulated cells and 16 wells of forskolin plus 1 μM CP55,940-treated cells. Concentrations of cAMP were expressed as a percent of the difference of these two groups of wells.

[4] = hCB2R, cAMP assay, read-out: EC50 at hCB2R (Potency at Human CB2 determined by cAMP Assay)

human CB1 receptor (hCB1), sequence (P21554 whole entry): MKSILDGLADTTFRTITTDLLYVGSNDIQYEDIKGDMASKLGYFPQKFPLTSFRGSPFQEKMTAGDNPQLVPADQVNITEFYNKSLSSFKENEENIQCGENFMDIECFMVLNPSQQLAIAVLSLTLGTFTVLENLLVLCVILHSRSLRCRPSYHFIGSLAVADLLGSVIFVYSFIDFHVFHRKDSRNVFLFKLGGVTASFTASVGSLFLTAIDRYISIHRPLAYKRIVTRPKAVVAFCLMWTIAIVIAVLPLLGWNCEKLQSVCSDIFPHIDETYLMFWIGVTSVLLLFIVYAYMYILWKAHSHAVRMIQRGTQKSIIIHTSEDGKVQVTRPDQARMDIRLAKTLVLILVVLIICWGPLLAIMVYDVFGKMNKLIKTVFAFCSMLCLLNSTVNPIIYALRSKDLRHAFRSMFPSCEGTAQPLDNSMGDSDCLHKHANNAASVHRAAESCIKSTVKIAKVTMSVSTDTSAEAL
human CB2 receptor (hCB2), sequence (P34972 whole entry): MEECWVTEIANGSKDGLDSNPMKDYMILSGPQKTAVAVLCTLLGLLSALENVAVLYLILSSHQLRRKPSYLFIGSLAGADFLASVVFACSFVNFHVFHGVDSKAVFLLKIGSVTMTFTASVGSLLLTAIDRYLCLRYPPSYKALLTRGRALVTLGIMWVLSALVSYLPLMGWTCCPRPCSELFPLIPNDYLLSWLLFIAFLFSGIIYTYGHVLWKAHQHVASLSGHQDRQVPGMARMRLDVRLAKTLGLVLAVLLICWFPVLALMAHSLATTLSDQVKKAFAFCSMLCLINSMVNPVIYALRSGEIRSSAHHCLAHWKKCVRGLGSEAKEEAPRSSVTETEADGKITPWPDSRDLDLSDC

In the case of `CC(C)(C)[C@H](NC(=O)n1nc(-c2ccc(F)c(F)c2)c2c1CCOC2)C(=O)NCCO` [Compound 36, (S)-N-(1-(2-hydroxyethylamino)-3,3-dimethyl-1-oxobutan-2-yl)-3-(3,4-difluorophenyl)-6,7-dihydropyrano[4,3-c]pyrazole-1(4H)-carboxamide], the “sensitivity to non-noxious mechanical stimuli, significance vs. vehicle-controls” value ([1]; 3 mg/kg oral) is reported as “significant to p<0.05 vs. vehicle-controls”, the “sensitivity to non-noxious mechanical stimuli, significance vs. vehicle-controls” value ([1]; 10 mg/kg oral) is reported as “significant to p<0.001 vs. vehicle-controls” and the “sensitivity to non-noxious mechanical stimuli, significance vs. vehicle-controls” value ([1]; 30 mg/kg oral) is reported as “significant to p<0.001 vs. vehicle-controls”.

In the case of `CNC(=O)[C@@H](NC(=O)n1nc(-c2cc(C(F)(F)F)ccc2F)c2c1CCN(C)C2)C(C)(C)C` [Compound 59, (S)-N-(3,3-dimethyl-1-(methylamino)-1-oxobutan-2-yl)-3-(2-fluoro-5-(trifluoromethyl)phenyl)-5-methyl-4,5,6,7-tetrahydro-1H-pyrazolo[4,3-c]pyridine-1-carboxamide], the EC50 [2] is reported as < 1000 nM and the EC50 [3] is reported as < 1000 nM.

`CC(C)(C)[C@H](NC(=O)n1nc(-c2ccc(F)c(F)c2)c2c1CCOC2)C(=O)NCCC#N` [Compound 104, (S)-N-(1-(2-cyanoethylamino)-3,3-dimethyl-1-oxobutan-2-yl)-3-(3,4-difluorophenyl)-6,7-dihydropyrano[4,3-c]pyrazole-1(4H)-carboxamide] was tested, and the EC50 [2] was < 1000 nM and the EC50 [3] was < 1000 nM.

With `Cc1cc(NC(=O)[C@@H](NC(=O)n2nc(-c3ccc(F)c(F)c3)c3c2CCOC3)C(C)(C)C)n[nH]1` [Compound 105, (S)-3-(3,4-difluorophenyl)-N-(3,3-dimethyl-1-(5-methyl-1H-pyrazol-3-ylamino)-1-oxobutan-2-yl)-6,7-dihydropyrano[4,3-c]pyrazole-1(4H)-carboxamide] the EC50 [2] was < 1000 nM and the EC50 [3] was < 1000 nM.

With `Cc1cnc(CNC(=O)[C@@H](NC(=O)n2nc(-c3ccc(F)c(F)c3)c3c2CCOC3)C(C)(C)C)cn1` [Compound 106, (S)-3-(3,4-difluorophenyl)-N-(3,3-dimethyl-1-((5-methylpyrazin-2-yl)methylamino)-1-oxobutan-2-yl)-6,7-dihydropyrano-[4,3-c]pyrazole-1(4H)-carboxamide] the EC50 [2] was < 1000 nM and the EC50 [3, 4] was < 1000 nM.

With `CC(C)(C)[C@H](NC(=O)n1nc(-c2ccc(F)c(F)c2)c2c1CCOC2)C(=O)N1CCN(c2ncccn2)CC1` [Compound 107, (S)-3-(3,4-difluorophenyl)-N-(3,3-dimethyl-1-oxo-1-(4-(pyrimidin-2-yl)piperazin-1-yl)butan-2-yl)-6,7-dihydropyrano[4,3-c]pyrazole-1(4H)-carboxamide] the EC50 [2] was < 1000 nM and the EC50 [3, 4] was < 1000 nM.

For `CC(C)(C)[C@H](NC(=O)n1nc(-c2ccc(F)c(F)c2)c2c1CCOC2)C(=O)N1CCN(c2nccs2)CC1` [Compound 108, (S)-3-(3,4-difluorophenyl)-N-(3,3-dimethyl-1-oxo-1-(4-(thiazol-2-yl)piperazin-1-yl)butan-2-yl)-6,7-dihydropyrano[4,3-c]pyrazole-1(4H)-carboxamide], the EC50 [2] was < 1000 nM and the EC50 [3] was < 1000 nM.

For `CC(C)(C)[C@H](NC(=O)n1nc(-c2ccc(F)c(F)c2)c2c1CCOC2)C(=O)N1CCC[C@H]1CO` [Compound 109, 3-(3,4-difluorophenyl)-N-((S)-1-((S)-2-(hydroxymethyl)pyrrolidin-1-yl)-3,3-dimethyl-1-oxobutan-2-yl)-6,7-dihydropyrano[4,3-c]pyrazole-1(4H)-carboxamide], the EC50 [2] was < 1000 nM and the EC50 [3] was < 1000 nM.

For `CC(C)(C)[C@H](NC(=O)n1nc(-c2ccc(F)c(F)c2)c2c1CCOC2)C(=O)N1CCS(=O)(=O)CC1` [Compound 110, (S)-3-(3,4-difluorophenyl)-N-(3,3-dimethyl-1-oxo-1-thiomorpholinodioxide-butan-2-yl)-6,7-dihydropyrano[4,3-c]pyrazole-1(4H)-carboxamide], the EC50 [2] was < 1000 nM and the EC50 [3, 4] was > 1000 nM.

With `CC(C)(C)[C@H](NC(=O)n1nc(-c2ccc(F)c(F)c2)c2c1CCOC2)C(=O)N1CCNC(=O)C1` [Compound 111, (S)-3-(3,4-difluorophenyl)-N-(3,3-dimethyl-1-oxo-1-(3-oxopiperazin-1-yl)butan-2-yl)-6,7-dihydropyrano[4,3-c]pyrazole-1(4H)-carboxamide] the EC50 [2] was < 1000 nM and the EC50 [3] was < 1000 nM.

`CN(C)S(=O)(=O)N1CCN(C(=O)[C@@H](NC(=O)n2nc(-c3ccc(F)c(F)c3)c3c2CCOC3)C(C)(C)C)CC1` [Compound 112, (S)-3-(3,4-difluorophenyl)-N-(1-(4-(N,N-dimethylsulfamoyl)piperazin-1-yl)-3,3-dimethyl-1-oxobutan-2-yl)-6,7-dihydropyrano-[4,3-c]pyrazole-1(4H)-carboxamide] was tested, and the EC50 [2] was < 1000 nM and the EC50 [3, 4] was > 1000 nM.

`Cc1nnc(CNC(=O)[C@@H](NC(=O)n2nc(-c3ccc(F)c(F)c3)c3c2CCOC3)C(C)(C)C)o1` [Compound 113, (S)-3-(3,4-difluorophenyl)-N-(3,3-dimethyl-1-((5-methyl-1,3,4-oxadiazol-2-yl)methylamino)-1-oxobutan-2-yl)-6,7-dihydropyrano[4,3-c]pyrazole-1(4H)-carboxamide] was tested, and the EC50 [2] was < 1000 nM and the EC50 [3] was < 1000 nM.

With `CC(C)(C)[C@H](NC(=O)c1nn(-c2ccc(Cl)cc2F)c2c1COCC2)C(=O)NCCO` [Compound 117, (S)-1-(4-chloro-2-fluorophenyl)-N-(1-(2-hydroxyethylamino)-3,3-dimethyl-1-oxobutan-2-yl)-1,4,6,7-tetrahydropyrano[4,3-c]pyrazole-3-carboxamide] the EC50 [2] was < 1000 nM and the EC50 [3] was < 1000 nM.

With `CC(C)(C)[C@H](NC(=O)c1nn(-c2ccc(Cl)cc2F)c2c1CCOC2)C(=O)NCCO` [Compound 118, (S)-1-(4-chloro-2-fluorophenyl)-N-(1-(2-hydroxyethylamino)-3,3-dimethyl-1-oxobutan-2-yl)-1,4,5,7-tetrahydropyrano[3,4-c]pyrazole-3-carboxamide] the EC50 [2] was < 1000 nM and the EC50 [3] was < 1000 nM.

With `CC(C)(C)[C@H](NC(=O)c1nn(-c2cc(Cl)ccc2F)c2c1COCC2)C(=O)NCCO` [Compound 119, (S)-1-(5-chloro-2-fluorophenyl)-N-(1-(2-hydroxyethylamino)-3,3-dimethyl-1-oxobutan-2-yl)-1,4,6,7-tetrahydropyrano[4,3-c]pyrazole-3-carboxamide] the EC50 [2] was < 1000 nM and the EC50 [3] was < 1000 nM.

`CNC(=O)[C@@H](NC(=O)c1nn(-c2ccc(F)c(F)c2)c2c1CN(C)CCC2)C(C)(C)C` [Compound 120, (S)-1-(3,4-difluorophenyl)-N-(3,3-dimethyl-1-(methylamino)-1-oxobutan-2-yl)-5-methyl-1,4,5,6,7,8-hexahydropyrazolo[4,3-c]azepine-3-carboxamide] was tested, and the EC50 [2] was < 1000 nM and the EC50 [3] was < 1000 nM.

In the case of `CC(C)(C)[C@H](NC(=O)c1nn(-c2cc(Cl)ccc2F)c2c1COCC2)C(=O)N1CCNC(=O)C1` [Compound 121, (S)-1-(5-chloro-2-fluorophenyl)-N-(3,3-dimethyl-1-oxo-1-(3-oxopiperazin-1-yl)butan-2-yl)-1,4,6,7-tetrahydropyrano[4,3-c]pyrazole-3-carboxamide], the EC50 [2] is reported as < 1000 nM and the hCBR2 activity ([3]; cAMP assay) is reported as “no detectable hCBR2 activity”.

In the case of `CC(C)(C)C(NC(=O)c1nn(-c2cc(Cl)ccc2F)c2c1COCC2)C(=O)N1CCC[C@H]1CO` (stereo partly drawn) [Compound 122], the EC50 [2] is reported as < 1000 nM and the EC50 [3] is reported as < 1000 nM.

In the case of `Cc1nnc(CNC(=O)[C@@H](NC(=O)c2nn(-c3cc(Cl)ccc3F)c3c2COCC3)C(C)(C)C)o1` [Compound 123], the EC50 [2] is reported as < 1000 nM and the hCBR2 activity ([3]; cAMP assay) is reported as “no detectable hCBR2 activity”.
